From publication PMC9916762, “Impact of Hydrophobic Chains in Five-Coordinate Glucoconjugate Pt(II) Anticancer Agents” (International Journal of Molecular Sciences, 2023) come the findings set out here.

In the data set the test system is SVT2 cells. As to the kind of experiment: Cellular Pt uptake by ICP-MS, SVT2. Format: cell-based, murine. To be noted: SVT2, 9.8 μM (IC50), 48 h, mean ± S.E. The protocol:
In particular, SVT2 and A431 were incubated for 48 h with 1-Me,Me and 1-Oct,Me, using the IC50 value concentrations. At the end of incubation, uptake and cell death mechanisms were evaluated. […] Finally, apoptosis was investigated by Western blot analyses using specific antibodies against pro-caspases 9 and 3.
To study the uptake of the complexes, SVT2 and A431 were incubated for 48 h in the presence of 1-Me,Me and 1-Oct,Me, respectively, at their IC50 concentrations. At the end of incubation, Pt determination was performed by inductively coupled plasma mass spectrometry (ICP-MS, Aurora M90; Bruker, Ettlingen/Leipzig, Germany) in the “Normal Sensitivity” mode. Calibration curves for the quantification of Pt ranged from 0.1 to 100 μg/L and were constructed daily by the analysis of the standard solutions prepared immediately before analysis. All standards used for analysis were prepared in HNO3 solution (2%, v/v). The internal standards were ^89Y and ^115In in both the calibration curve and sample analyses. The linearity was acceptable with an R^2 value greater than 0.9996. The treatment of the cells involved a wet digestion: after centrifugation, cell samples were wet digested with 1 mL of ultrapure HNO3 (67–69%, v/v). The mixture was gently boiled over a water bath (90 °C) for 3 h until a clear solution was obtained. […]

As to “Platinum(1+), (2,9-dimethyl-1,10-phenanthroline- N1,N10)(η2-ethene)methyl[1,3-dihydro-1,3-dimethyl-4-[1-[2,3,4,6-tetrakis-O-(acetyl)-β-D-glucopyranosyl]-1H-1,2,3-triazol-4-yl]-2H-imidazol-2-ylidene], 1,1,1-trifluoromethanesulfonate [1-Me,Me]”, the Pt uptake worked out at 0.772 ± 0.010 Pt ng/10^6 cells.
